This is an account of results in patent publication EP4786468A1, “CRYSTALLINE FORM OF HDAC6 INHIBITOR AND PREPARATION METHOD THEREFOR” (Suzhou Genhouse Bio Co., Ltd., priority 2023, dated 2025).

The structures appear in SMILES notation.

Data set [1] in a line: Mouse pharmacokinetic test (IV and PO). The settings on record: BALB/c mice. The data set is classed as in vivo. As to the method:
This experimental example tested the pharmacokinetic behavior of the compound in BALB/c mice after intravenous (IV) and oral (PO) administration.
The actual body weight of the mice was measured on the day of dosing and the dose volume was calculated. Each group consisted of 3 mice. The compound was tested in two groups: one group received a single intravenous injection, and the other group received a single oral gavage. Whole blood samples were collected via orbital bleeding at specified time points (0.25, 0.5, 1, 2, 4, 8, 24h post-dose). After blood collection, samples were immediately transferred to labeled commercial tubes containing K2-EDTA (0.85-1.15 mg), then centrifuged (3200 x g, 4°C, 10 minutes) to obtain plasma. The plasma was transferred to pre-cooled centrifuge tubes, flash-frozen on dry ice, and stored in an ultra-low temperature freezer at -60°C or lower until LC-MS/MS analysis.
Plasma concentrations were determined using an LC-MS/MS method. […] Relevant pharmacokinetic parameters were calculated using the linear log trapezoidal method. Table 9: Mouse Pharmacokinetic Test Experimental Data

Data set [2] is described as follows: Phase I metabolic stability in liver microsomes. The data set is classed as in vitro ADME, humans. The note with it: HLM. As to the method:
(§1) Evaluation of the Phase I metabolic stability of the test compound in liver microsomes from CD-1 mice (MLM), Sprague-Dawley rats (RLM), beagle dogs (DLM), cynomolgus monkeys (CLM), and humans (HLM).
(§2) The animal and human liver microsomes used in this test system were purchased from Xenotech, Corning, or other qualified suppliers and stored in a freezer below -60°C before use.
(§3) The test and control compounds were incubated with animal and human liver microsomes at 37±1°C for a certain period, with a maximum incubation time of 60 minutes. Samples were taken at specified time points, and the reaction was terminated with acetonitrile or other organic solvents containing an internal standard. After centrifugation, the resulting supernatant was analyzed using liquid chromatography-tandem mass spectrometry (LC-MS/MS).
(§4) 73.21 g of dipotassium hydrogen phosphate trihydrate and 10.78 g of potassium dihydrogen phosphate were dissolved in 4000 mL of ultrapure water. The pH of the solution was adjusted to 7.40±0.10 using 10% phosphoric acid or 1 M potassium hydroxide, with a final concentration of 100 mM. […]
(§5) Sample analysis was performed using liquid chromatography-tandem mass spectrometry (LC-MS/MS), without calibration curves and quality control samples. Semi-quantitative determination was performed using the ratio of the analyte peak area to the internal standard peak area. […]

A short description of data set [3]: Phase I metabolic stability in liver microsomes. The data set is classed as in vitro ADME, Sprague-Dawley rats. The note with it: RLM. As to the method:
as §1, §2, §3, §4, §5

The nature of data set [4]: Phase I metabolic stability in liver microsomes. The data set is classed as in vitro ADME, CD-1 mice. The note with it: MLM. As to the method:
as §1, §2, §3, §4, §5

Where [5] appears, read: 60 min, buffer instead of NADPH regeneration system.
The mark [6] stands for this setting: 60 min with NADPH regeneration system.

With `O=C(N[C@@H]1CCCC[C@H]1N1Cc2ccc(-c3nnc(C(F)F)o3)cc2S1(=O)=O)C(F)F` [I], the CLz in data set [1] (IV@2mg/kg) is 6 mL/min/kg. Further, the t1/2z in data set [1] (IV@2mg/kg) was 60.6 min; in data set [1] (PO@10mg/kg) it was 97.2 min; in data set [1] (PO@30mg/kg) it was 52.2 min; in data set [1] (PO@100mg/kg), 48.6 min. The F is 123.92% in data set [1] (PO@10mg/kg), 96.93% in data set [1] (PO@30mg/kg) and 95.71% in data set [1] (PO@100mg/kg). For the same compound, the entries for the “Remaining Rate (NCF=60 min)” value in data set [2] (setting [5]), in data set [3] (setting [5]) and in data set [4] (setting [5]) were 97.3%, 93.0% and 99.8%, respectively. The “Remaining Rate (T=60 min)” value came out at 86.1% in data set [2] (setting [6]), 76.4% in data set [3] (setting [6]) and 84.8% in data set [4] (setting [6]).
